Reference: patent publication US5607926A, “Cephalosporin antibiotics” (Microcide Pharmaceuticals, Inc., priority 1995, dated 1997)
Converted amounts (≈) assume the structure as drawn. Like-named read-outs stand apart in the source and are kept apart here.

Assays:
Assay type in all cases: cell-based
[1] = system: X. maltophilia ATCC 13637; assay: In vitro antibacterial evaluation, MIC by agar dilution, X. maltophilia ATCC 13637; details: Stenotrophomonas maltophilia, ATCC13637
Method: The compounds of the invention were evaluated against several β-lactamresistant bacteria strains by determining the minimum inhibitory concentration (MIC, μg/ml) of each compound with respect to each strain. The MIC, the lowest concentration of antibiotic which inhibits growth of the test organism, was determined by the agar dilution method.
To determine the MIC for bacterial isolates, the test compound was incorporated in a series of two-fold dilutions into liquified Mueller-Hinton agar. Upon solidification, a number of different bacterial strains were spot inoculated with a replicating device onto the agar surface. […] The procedures used in these studies have been standardized by the National Committee for Clinical Laboratory Standards (NCCLS), as per the NCCLS publication entitled METHODS FOR DILUTION ANTIMICROBIAL SUSCEPTIBILITY TESTS (1991), which is incorporated herein by reference.
Aliquots of antimicrobial agents were prepared in phosphate buffered saline (PBS) at pH 7.2. Tween 20 or DMSO was used as a solubilizing vehicle as needed. Standard methods of vortexing, sonicating and gentle heat were used to facilitate solubilizing the test agent. Typically, the concentration of the stock solution was 10× that of the highest drug concentration tested. A 1.28 mg/mL stock solution was used with a subsequent highest working concentration of 128 μg/mL. Serial two-fold dilutions were done through ≤0.25 μg/mL. Each drug level was tested in duplicate. Two-fold drug dilutions were done in sterile 50 mL tubes with a final drug volume of 5 mL. Upon the addition of 45 mL of molten agar, a 10-fold dilution resulted. Two, 25 mL. plates were then poured into 15×150 mm square Petri plates with grids and allowed to harden.
A control plate with a reference drug, either cefotaxime, vancomycin or imipenem, was used as the positive growth control. Stock concentrations of reference antibiotics were prepared and frozen at -80° C. Upon preparation, the control plates were sealed and stored in the refrigerator for up to 1 week prior to use; however, imipenem control plates had to be prepared just prior to use. All test plates were used within 24 hours of preparation.
Satisfactory results were obtained where the inoculum contained about 10^4 colony forming units (cfu) ±0.5 logs. Starting with pure cultures of the test isolates on agar plates, a few isolated colonies were transferred to a tube of nutrient broth and allowed to grow 4-6 hours at 35°-36° C. to reach log-phase growth. Dropwise addition of the broth culture to PBS was done to match a 0.5 McFarland turbidity standard equal to 10^8 cfu/mL. This was further diluted ten-fold in PBS to reach a working inoculum concentration of 10^7 cfu/mL. When 1 μL of the working inoculum was applied to the agar surface a concentration of about 10^4 cfu per spot was obtained.
Disposable sterile 1 μL loops were used to inoculate test plates, with each isolate in a designated grid on the agar plate. An alternate method of inoculation involved the use of a replica plater, a device with 48 steel pins allowing the simultaneous inoculation of multiple isolates. After the spots had dried, the plates were incubated at 35°-36° C. for 16-20 hours. Endpoints were assessed as the minimum inhibitory concentration (MIC) of antimicrobial agent.

[2] = system: S. aureus 76 (Meth^R)(lac^+); assay: In vitro antibacterial evaluation, MIC by agar dilution, S. aureus 76; details: Staphylococcus aureus, read-out: MIC
Method in brief: (§1)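 In this standardized agar dilution format, compound was dissolved in PBS pH 7.2, with Tween 20 or DMSO as needed, and mixed into molten Mueller-Hinton agar to final levels of 128 down to ≤0.25 μg/mL. About 10^4 cfu were spotted per isolate, and MIC was recorded after 16-20 h at 35°-36° C.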

[3] = system: S. haemolyticus (Meth^R); assay: In vitro antibacterial evaluation, MIC by agar dilution, S. haemolyticus; details: Staphylococcus haemolyticus, read-out: MIC
Method in brief: as §1

[4] = system: S. epidermidis ATCC 31432; assay: In vitro antibacterial evaluation, MIC by agar dilution, S. epidermidis ATCC 31432; details: Staphylococcus epidermidis, ATCC31432
Method in brief: as §1

[5] = system: E. coli ATCC 25922; assay: In vitro antibacterial evaluation, MIC by agar dilution, E. coli ATCC 25922; details: Escherichia coli, ATCC25922, read-out: MIC
Method in brief: as §1

[6] = system: E. faecium ATCC 35667; assay: In vitro antibacterial evaluation, MIC by agar dilution, E. faecium ATCC 35667; details: Enterococcus faecium, ATCC35667, read-out: MIC
Method in brief: as §1

[7] = system: S. aureus Col8A (Meth^S)(lac^-); assay: In vitro antibacterial evaluation, MIC by agar dilution, S. aureus Col8A; details: Staphylococcus aureus
Method in brief: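 Log-phase isolates were spot-inoculated at about 10^4 cfu onto Mueller-Hinton agar carrying duplicate two-fold compound levels, 128 μg/mL to ≤0.25 μg/mL, following NCCLS (1991). Plates were read after 16-20 h at 35°-36° C. The lowest growth-inhibiting concentration gave the MIC (μg/ml).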

[8] = system: S. aureus ATCC 29213; assay: In vitro antibacterial evaluation, MIC by agar dilution, S. aureus ATCC 29213; details: Staphylococcus aureus, ATCC29213
Method in brief: as §1

[9] = system: E. faecalis ATCC 29212; assay: In vitro antibacterial evaluation, MIC by agar dilution, E. faecalis ATCC 29212; details: Enterococcus faecalis, ATCC29212; E. faecalis ATCC 29212; read-out: MIC
Method in brief: as §1

[10] = system: P. aeruginosa ATCC 27853; assay: In vitro antibacterial evaluation, MIC by agar dilution, P. aeruginosa ATCC 27853; details: Pseudomonas aeruginosa, ATCC27853, read-out: MIC
Method in brief: as §1

[11] = system: S. aureus ATCC 25923; assay: In vitro antibacterial evaluation, MIC by agar dilution, S. aureus ATCC 25923; details: Staphylococcus aureus, ATCC25923
Method in brief: as §1

[12] = S. epidermidis ATCC 31432, read-out: MIC
[13] = S. aureus ATCC 29213, read-out: MIC
[14] = S. aureus ATCC 25923, read-out: MIC

SMILES | MIC [1] | MIC [2] | MIC [3] | MIC [4, 12] | MIC [5] | MIC [6] | MIC [7] | MIC [8, 13] | MIC [9] | MIC [10] | MIC [11, 14] | MIC [4] | MIC [8] | MIC [11]
O=C(Cc1ccccc1)N[C@@H]1C(=O)N2C(C(=O)O)=C(Sc3cccc(I)c3)CS[C@H]12 [Cmpd 2, (7R)-7-[(Phenylacetyl)amino]-3-(m-iodophenylthio)-3-cephem-4-carboxylic acid] | > 32 µg/mL | 16 µg/mL (≈ 29 µM) | 16 µg/mL (≈ 29 µM) | < 0.015 µg/mL | > 32 µg/mL | 2 µg/mL (≈ 3.62 µM) | 0.03 µg/mL (≈ 0.0543 µM) | 0.03 µg/mL (≈ 0.0543 µM) | 2 µg/mL (≈ 3.62 µM) | > 32 µg/mL | < 0.015 µg/mL |  |  | 
O=C(Cc1ccccc1)N[C@@H]1C(=O)N2C(C(=O)O)=C(Sc3ccccc3Cl)CS[C@H]12 [Cmpd 15, (7R)-7-[(Phenylacetyl)amino]-3-(o-chlorophenylthio)-3-cephem-4-carboxylic acid] | > 32 µg/mL | 8 µg/mL (≈ 17.4 µM) | 16 µg/mL (≈ 34.7 µM) | 0.03 µg/mL (≈ 0.0651 µM) | > 32 µg/mL | 2 µg/mL (≈ 4.34 µM) | 0.06 µg/mL (≈ 0.13 µM) | 0.06 µg/mL (≈ 0.13 µM) | 2 µg/mL (≈ 4.34 µM) | > 32 µg/mL | 0.03 µg/mL (≈ 0.0651 µM) |  |  | 
O=C(Cc1ccccc1)N[C@@H]1C(=O)N2C(C(=O)O)=C(Sc3ccc(-c4ccccc4)cc3)CS[C@H]12 [Cmpd 8, (7R)-7-[(Phenylacetyl)amino]-3-(4-biphenylthio)-3-cephem-4-carboxylic acid] | > 32 µg/mL | > 32 µg/mL |  |  | > 32 µg/mL |  | < 0.125 µg/mL |  | 4 µg/mL (≈ 7.96 µM) | > 32 µg/mL |  | < 0.125 µg/mL | < 0.125 µg/mL | < 0.125 µg/mL
O=C(Cc1ccccc1)N[C@@H]1C(=O)N2C(C(=O)O)=C(Sc3ccc(Cl)cc3)CS[C@H]12 [Cmpd 3, (7R)-7-[(Phenylacetyl)amino]-3-(p-chlorophenylthio)-3-cephem-4-carboxylic acid] | > 32 µg/mL | 16 µg/mL (≈ 34.7 µM) | 16 µg/mL (≈ 34.7 µM) |  | > 32 µg/mL | 4 µg/mL (≈ 8.68 µM) | 0.015 µg/mL (≈ 0.0325 µM) | 0.03 µg/mL (≈ 0.0651 µM) | 2 µg/mL (≈ 4.34 µM) | > 32 µg/mL |  | < 0.015 µg/mL |  | < 0.015 µg/mL
O=C(Cc1ccccc1)N[C@@H]1C(=O)N2C(C(=O)O)=C(Sc3ccc(-c4ccccc4)cc3F)CS[C@H]12 [Cmpd 13, (7R)-7-[(Phenylacetyl)amino]-3-(2-fluoro-4-biphenylthio)-3-cephem-4-carboxylic acid] | > 32 µg/mL | 16 µg/mL (≈ 30.7 µM) | 16 µg/mL (≈ 30.7 µM) | 0.03 µg/mL (≈ 0.0576 µM) | > 32 µg/mL | 4 µg/mL (≈ 7.68 µM) | 0.06 µg/mL (≈ 0.115 µM) | 0.06 µg/mL (≈ 0.115 µM) | 2 µg/mL (≈ 3.84 µM) | > 32 µg/mL | < 0.015 µg/mL |  |  | 
O=C(Cc1ccccc1)N[C@@H]1C(=O)N2C(C(=O)O)=C(Sc3ccccc3Br)CS[C@H]12 [Cmpd 4, (7R)-7-[(Phenylacetyl)amino]-3-(o-bromophenylthio)-3-cephem-4-carboxylic acid] | > 32 µg/mL | 4 µg/mL (≈ 7.91 µM) | 16 µg/mL (≈ 31.7 µM) | < 0.06 µg/mL | > 32 µg/mL | 2 µg/mL (≈ 3.96 µM) | < 0.06 µg/mL | 0.125 µg/mL (≈ 0.247 µM) | 4 µg/mL (≈ 7.91 µM) | > 32 µg/mL | < 0.06 µg/mL |  |  | 
O=C(Cc1ccccc1)N[C@@H]1C(=O)N2C(C(=O)O)=C(Sc3ccc(-c4ccccc4)cc3Br)CS[C@H]12 [Cmpd 11, (7R)-7-[(Phenylacetyl)amino]-3-(2-bromo-4-biphenylthio)-3-cephem-4-carboxylic acid] | > 32 µg/mL | 4 µg/mL (≈ 6.88 µM) | 4 to 8 µg/mL (≈ 6.88 to 13.8 µM) | 0.03 µg/mL (≈ 0.0516 µM) | > 32 µg/mL | 4 µg/mL (≈ 6.88 µM) | 0.06 µg/mL (≈ 0.103 µM) | 0.125 µg/mL (≈ 0.215 µM) | 2 µg/mL (≈ 3.44 µM) | > 32 µg/mL | < 0.015 µg/mL |  |  | 
O=C(Cc1ccccc1)N[C@@H]1C(=O)N2C(C(=O)O)=C(Sc3ccc(F)cc3)CS[C@H]12 [Cmpd 1, (7R)-7-[(Phenylacetyl)amino]-3-(p-fluorophenylthio)-3-cephem-4-carboxylic acid] | > 32 µg/mL | 32 µg/mL (≈ 72 µM) | > 32 µg/mL | < 0.015 µg/mL | > 32 µg/mL | 8 µg/mL (≈ 18 µM) | 0.03 µg/mL (≈ 0.0675 µM) | 0.03 µg/mL (≈ 0.0675 µM) | 2 µg/mL (≈ 4.5 µM) | > 32 µg/mL | < 0.015 µg/mL |  |  | 
O=C(Cc1ccccc1)N[C@@H]1C(=O)N2C(C(=O)O)=C(Sc3ccc(Br)cc3-c3ccccc3)CS[C@H]12 [Cmpd 14, (7R)-7-[(Phenylacetyl)amino]-3-(4-bromo-2-biphenylthio)-3-cephem-4-carboxylic acid] | > 32 µg/mL | 4 µg/mL (≈ 6.88 µM) | 8 µg/mL (≈ 13.8 µM) | 0.06 µg/mL (≈ 0.103 µM) | > 32 µg/mL | 1 µg/mL (≈ 1.72 µM) | 0.25 µg/mL (≈ 0.43 µM) |  | 2 µg/mL (≈ 3.44 µM) | > 32 µg/mL | 0.06 µg/mL (≈ 0.103 µM) |  | 0.25 µg/mL (≈ 0.43 µM) | 
O=C(Cc1ccccc1)N[C@@H]1C(=O)N2C(C(=O)O)=C(Sc3cccc(-c4ccccc4)c3)CS[C@H]12 [Cmpd 10, (7R)-7-[(Phenylacetyl)amino]-3-(3-biphenylthio)-3-cephem-4-carboxylic acid] | > 32 µg/mL | 32 µg/mL (≈ 63.7 µM) |  | < 0.06 µg/mL | > 32 µg/mL |  | 0.125 µg/mL (≈ 0.249 µM) |  | 2 µg/mL (≈ 3.98 µM) | > 32 µg/mL | < 0.06 µg/mL |  | 0.125 µg/mL (≈ 0.249 µM) | 
O=C(Cc1ccccc1)N[C@@H]1C(=O)N2C(C(=O)O)=C(Sc3ccc(Br)cc3)CS[C@H]12 [Cmpd 5, (7R)-7-[(Phenylacetyl)amino]-3-(p-bromophenylthio)-3-cephem-4-carboxylic acid] | > 32 µg/mL | 16 µg/mL (≈ 31.7 µM) | 16 µg/mL (≈ 31.7 µM) | < 0.015 µg/mL | > 32 µg/mL | 4 µg/mL (≈ 7.91 µM) | 0.03 µg/mL (≈ 0.0594 µM) | 0.03 µg/mL (≈ 0.0594 µM) | 2 µg/mL (≈ 3.96 µM) | > 32 µg/mL | < 0.015 µg/mL |  |  | 
